Experimental data: PubChem BioAssay AID1250 (SRMLSC, 2008)
The source made the active and inactive calls.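 Rule for the calls: active = inhibition of at least 30% at one or more tested concentrations; inactive = inhibition below 30% at every dose.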

Test: inhibitors of Bluetongue virus cytopathic effect, confirmation, arbovirus, BSR cells (AID 1250)
Conditions: BSR cells, Bluetongue virus CPE, ATP luminescence, 72 h; at 20 µM (top of the series)

| Structure (SMILES) | CPE inhibition |
| --- | --- |
| N=C(N)SCc1nc2ccccc2c(=O)n1-c1ccccc1 | -4.62% (inactive) |
| Nc1nc2ccccc2n1/N=C/c1ccc(-c2ccccc2)o1 | 12.9% (inactive) |
| CCOC(=O)N1CCC(Nc2c(Nc3cccc(CC)c3)c(=O)c2=O)CC1 | 9.52% (inactive) |
| O=[N+]([O-])c1ccc(NCCNCCOc2nonc2-c2ccccc2)c([N+](=O)[O-])c1 | 6.24% (inactive) |
| O=C(Nc1ccccc1C(=O)O)c1ccc(Br)c(S(=O)(=O)NCc2ccccc2)c1 | 21.6% (inactive) |
| CC(C)CC1=NN2C(=N)/C(=C\c3coc4ccccc4c3=O)C(=O)N=C2S1 | 13.5% (inactive) |
| COc1ccc(Cl)cc1NC(=O)C1COc2ccccc2O1 (stereo not drawn) | 26.3% (inactive) |
| CCSc1nnc(NC(=O)c2ccc(C)cc2)s1 | 5.39% (inactive) |
| COc1ccc(-c2noc(CSc3nc(-c4ccccc4)cc(=O)[nH]3)n2)cc1OC | 26.6% (inactive) |
| CCOC(=O)C1CCCN(Cc2ccccc2Cl)C1 (stereo not drawn) | 6.31% (inactive) |
| Cc1ccc(S(=O)(=O)Oc2ccc(C)cc2/C=N/N=C2\NC(=O)C(C)S2)cc1 (stereo not drawn) | 25.2% (inactive) |
| O=Cc1cn(-c2ccccc2)nc1-c1cc2cc(O)ccc2oc1=O | 9.88% (inactive) |
| COc1ccc(-c2noc(-c3cc(C)cc(C)c3)n2)cc1OC | 10% (inactive) |
| O=C(CSc1ncn[nH]1)Nc1nc(-c2ccccc2)ns1 | 6.55% (inactive) |
| O=C(NC1CCN(Cc2ccccc2)CC1)c1cccc(S(=O)(=O)Nc2cc(C(F)(F)F)ccc2Cl)c1 | 21.7% (inactive) |
| FC(F)(F)c1cccc(Oc2ccc3c(C(F)(F)F)cc(C(F)(F)F)nc3n2)c1 | 3.1% (inactive) |
| Cc1nn(-c2ccccc2)c2nc(C(F)(F)F)[nH]c(=O)c12 | 20% (inactive) |
| Cc1csc(NC(=O)CN2C(=O)C3CC=CCC3C2=O)n1 (stereo not drawn) | 1.87% (inactive) |
| COc1ccc(C(=O)/C=C/c2ccc(OC)c(Cn3nnc4ccccc43)c2)cc1 | 15.8% (inactive) |
| O=C(Nc1scc(-c2ccccc2)c1C(=O)O)c1ccco1 | 10.9% (inactive) |
| O=C(CSc1nc2nn(-c3ccccc3)c(=O)c-2c2n1CCCCC2)NCCc1ccccc1 | 10.8% (inactive) |
| COc1cccc(CN=C2Nc3ccccc3CS2)c1 | -0.42% (inactive) |
| CC1=C(C#N)C(=O)NC(=O)/C1=C\c1ccc(-c2cc(C)c(C)cc2[N+](=O)[O-])o1 | 4.65% (inactive) |

| Structure (SMILES) | CPE inhibition |
| --- | --- |
| CCOC(=O)c1c(-c2ccc(C)cc2)csc1NC(=O)C1CC=CCC1C(=O)O (stereo not drawn) | 18.1% (inactive) |
| O=C(O)c1c(NC(=O)c2cccc3ccccc23)sc2c1CCC2 | 0.01% (inactive) |
| CCCc1cc(=O)[nH]c(SCC(=O)NC)n1 | -0.15% (inactive) |
| CC(C)CSC1=NSC2=NC(=O)/C(=C\c3coc4ccccc4c3=O)C(=N)N12 | 14% (inactive) |
| COCCn1c(SC(C)C(=O)Nc2ncc(Cl)cc2Cl)nc2ccccc21 (stereo not drawn) | 21% (inactive) |
| O=C(Nc1ccn(Cc2ccccc2)n1)c1n[nH]c([N+](=O)[O-])c1Cl | 14% (inactive) |
| Cc1cccc(CSc2nnc(NC(=O)CSc3nnc(C)s3)s2)c1 | 17.3% (inactive) |
| COc1ccc(-c2nnc(-c3ccc(Br)o3)o2)cc1OC | 14.5% (inactive) |
| O=c1oc(-c2ccccc2NS(=O)(=O)c2ccc3ccccc3c2)nc2ccccc12 | 10.9% (inactive) |
| Cc1cc(C)c(NC(=O)c2oc3ccccc3c2COc2ccccc2)c(C)c1 | 5.41% (inactive) |
| COc1cccc(C2=CC(c3ccc(C)cc3)n3ncnc3N2)c1 (stereo not drawn) | 22.6% (inactive) |
| CCCn1c(N)c(C(=O)CSc2nc3ccccc3c(=O)n2-c2ccc(OC)cc2)c(=O)[nH]c1=O | 1.41% (inactive) |
| COc1ccc2c(c1)c1nc3ccccc3nc1n2Cc1ccc(OC)c(OC)c1 | 15.8% (inactive) |
| O=C(O)c1cc(N/N=C/c2ccc(OCc3ccccc3)cc2)ccc1Cl | 19.7% (inactive) |
| O=C1c2[nH]nc(-c3ccccc3O)c2C(c2ccc(F)cc2)N1CC1CCCO1 (stereo not drawn) | 10.9% (inactive) |
| CC1CCN(C2=NC(=O)/C(=C/c3cn[nH]c3-c3ccccc3)S2)CC1 | -2.7% (inactive) |
| O=C1CC(c2ccc(Br)cc2)NC(c2ccc(Br)cc2)C1c1ccccc1 (stereo not drawn) | 7.99% (inactive) |
| Cn1cc(CN2CCN(c3ccccc3)CC2)c2ccccc21 | 12% (inactive) |
| CCOC(=O)c1ccc(NC(=S)N2CCSC2c2c(F)cc(F)cc2F)cc1 (stereo not drawn) | 11.8% (inactive) |
| NC(=O)c1cc([N+](=O)[O-])ccc1NCc1cccnc1 | 3.11% (inactive) |
| CCSc1nnc(NC(=O)CSc2nnc(Cc3cccn3C)n2-c2ccc(F)cc2)s1 | 13.9% (inactive) |
| O=C(Nc1ccccc1C(=O)O)c1ccc2ccccc2n1 | 16.2% (inactive) |
| Cc1ccc(CSCc2nc3ccccc3[nH]2)cc1 | 12.9% (inactive) |

| Structure (SMILES) | CPE inhibition |
| --- | --- |
| CC(C)n1c(NCCc2ccccc2)nc2c1c(=O)n(C)c(=O)n2C | 7.91% (inactive) |
| CCc1ccc(C(=O)Nc2ccc(S(=O)(=O)Nc3nc(C)cc(C)n3)cc2)o1 | 24.5% (inactive) |
| COC(=O)C1=C(C)N(Cc2ccco2)C(=O)N[C@@H]1c1cccc(C(F)(F)F)c1 | 21.6% (inactive) |
| COC(=O)c1ccccc1NC(=O)c1ccc(COc2ccc(C)c(C)c2)o1 | 27.6% (inactive) |
| Cc1oc(-c2ccccc2Cl)nc1CSCC(=O)N1CCCC1 | 16.4% (inactive) |
| O=C(CSCc1ccccc1)Nc1cccc(C(=O)Nc2ccccc2C(=O)O)c1 | 9.16% (inactive) |
| O=C(CSc1ncn(-c2ccccc2)n1)Nc1nc2ccccc2s1 | 10.5% (inactive) |
| O=C(N/N=C/c1c(O)n(CCc2ccccc2)c(=O)[nH]c1=O)c1ccncc1 | 7.83% (inactive) |
| O=C(c1ccc2ccccc2n1)N1CCN(c2ccccc2Cl)CC1 | 8.76% (inactive) |
| CCOc1ccc2nc(NC(=O)C3CCN(S(=O)(=O)c4cnc[nH]4)CC3)sc2c1 | 11.9% (inactive) |
| COc1cc(-c2nnc(-c3ccc(N4CCOCC4)cc3)o2)cc(OC)c1OC | 8.33% (inactive) |
| N#Cc1c(NC(=O)CSc2nnc(-c3ccccc3)o2)sc2c1CCCC2 | -0.12% (inactive) |
| Cc1ccc(NC2c3ncccc3C(=O)N2C2CCCCC2)cc1C (stereo not drawn) | 12.7% (inactive) |
| CCCC(=O)Nc1cccc(NC(=O)c2ccc([N+](=O)[O-])cc2Cl)c1 | 1.21% (inactive) |
| CC(C)(CO)CNC(=O)CC1C(=O)NCCN1CC(c1ccccc1)c1ccccc1 (stereo not drawn) | 1.48% (inactive) |
| OC(c1ccccc1)C1CN(Cc2ccccc2)CCC1(O)c1ccccc1 (stereo not drawn) | 20.9% (inactive) |
| Cc1ccc(-n2cccc2/C=C2/C(=N)N3C(=NC2=O)SN=C3S(C)(=O)=O)cc1 | 12.1% (inactive) |
| Cc1ccccc1OCCSCc1nc2ccccc2[nH]1 | 24.9% (inactive) |
| O=c1[nH]c(=O)n(C(c2ccccc2)c2ccccc2)cc1Br | 18.7% (inactive) |
| COc1ccc(CCN(C)Cc2ccc(F)cc2F)cc1OC | 3.03% (inactive) |
| COCC(C)n1c(SCc2nc3ccccc3c(=O)[nH]2)nc2ccccc2c1=O (stereo not drawn) | 29.9% (inactive) |
| O=C(O)c1ccc2[nH]c3c(c2c1)CSCC3 | 2.13% (inactive) |
